Read-outs that look alike come from different tables or passages of the source.
Legend:
5-HT2A receptor [1] = target: T1, 5-HT2A receptor (Homo sapiens, UniProt P28223); test: cell-based; assay type: cell-based; set-up: expressed in transfected cells; host or cells: HEK293, stably transfected; details: for Emax: HEK293, agonist, read-out: 5-HT2A % Act @ Max Dose; for EC50: HEK293
How it was run: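 Stable HEK293 (5-HT2A, 5-HT2B) or CHO/Gα15 (5-HT1A) cells; Fluo-4 Direct, probenecid 2.5 mM final; 50 min dye load, 37 °C, 5% CO2; agonist-mode Ca2+ flux, FLIPR Tetra.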

5-HT2A receptor [2] = target: T1, 5-HT2A receptor; test: biochemical; assay type: binding; set-up: expressed in transfected cells; host or cells: HEK293, stably transfected; details: for Ki: [3H]ketanserin 1 nM, HEK293 stable cell line, 1 h, 25 °C
How it was run: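 Test compounds competed with [^3H]ketanserin for receptor binding, and affinity was derived from the radioligand displacement.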

5-HT2B receptor [3] = target: T2, 5-HT2B receptor (Homo sapiens, UniProt P41595); test: 5-HT2B receptor radioligand binding ([3H]LSD); details: read-out: 5-HT2B Receptor Ki
T2 construct: expressed in transfected cells; host or cells: HEK293, stably transfected

in vitro [4] = assay type: in vitro ADME, rat; details: RLM (male Sprague-Dawley) 0.50 mg/mL, NADPH 1 mM, 1 μM compound, pH 7.4, 37° C., 60 min; for microsomal CLint / half-life: rat, microsomes; for microsomal CLint: read-out: Intrinsic clearance (Clint); for half-life: read-out: half-life (t1/2)
Source text: RLM Stability Pooled RLM from male Sprague-Dawley rats (Xenotech R1000) were used.

in vitro [5] = assay type: in vitro ADME, human; details: HLM 0.50 mg/mL, NADPH 1 mM, 1 μM compound, pH 7.4, 37° C., 60 min; for microsomal CLint / half-life: human, microsomes; for microsomal CLint: read-out: Intrinsic clearance (Clint); for half-life: read-out: half-life (t1/2)
in vitro [6] = assay type: in vitro ADME, mouse; details: MLM (male CD-1) 0.50 mg/mL, NADPH 1 mM, 1 μM compound, pH 7.4, 37° C., 60 min; for microsomal CLint / half-life: mouse, microsomes; for microsomal CLint: read-out: Intrinsic clearance (Clint); for half-life: read-out: half-life (t1/2)
Source text: MLM Stability Pooled MLM from male CD-1 mice (BIOIVT M00501) were used.

5-HT1A receptor = target: T3, 5-HT1A receptor (Homo sapiens, UniProt P08908); test: cell-based; details: agonist, Ca2+ flux; for Emax: CHO, CHO cells with Gα15, max dose, read-out: 5-HT1A % Act @ Max Dose; for EC50: CHO cells with Gα15
T3 construct: expressed in transfected cells; host or cells: CHO cells, stably transfected
T3 sequence (P08908 1-422): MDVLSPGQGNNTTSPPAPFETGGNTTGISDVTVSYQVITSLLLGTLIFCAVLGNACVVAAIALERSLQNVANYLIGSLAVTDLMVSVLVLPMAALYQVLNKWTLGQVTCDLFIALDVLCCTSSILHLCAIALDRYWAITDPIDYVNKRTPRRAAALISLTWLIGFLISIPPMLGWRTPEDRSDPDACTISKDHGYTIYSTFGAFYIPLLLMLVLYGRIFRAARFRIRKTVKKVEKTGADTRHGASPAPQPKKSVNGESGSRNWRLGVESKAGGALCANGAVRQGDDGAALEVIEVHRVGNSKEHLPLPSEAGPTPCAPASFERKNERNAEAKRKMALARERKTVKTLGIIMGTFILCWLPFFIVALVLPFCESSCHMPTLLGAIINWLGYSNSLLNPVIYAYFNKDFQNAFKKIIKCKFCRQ
How it was run: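 Receptor agonism was assessed as intracellular calcium mobilization in stably transfected cells, with CHO cells additionally carrying Gα15 for the 5-HT1A readout. Calcium was monitored with Fluo-4 Direct dye.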

5-HT2B receptor [7] = target: T2, 5-HT2B receptor; test: cell-based; assay type: cell-based; details: Ca2+ flux; for Emax: HEK293, agonist, read-out: 5-HT2B % Act @ Max Dose; for EC50: HEK293
How it was run: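 FLIPR Tetra fluorescence read-out of calcium flux after compound addition. Receptor-expressing stable lines were used (HEK293 for 2A/2B; CHO with Gα15 for 1A), dye-loaded with Fluo-4 Direct and 2.5 mM final probenecid, 50 min at 37 °C.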

5-HT1B receptor = target: T4, 5-HT1B receptor (Homo sapiens, UniProt P28222); test: cAMP accumulation functional assay at 5-HT1B; assay type: cell-based; details: agonist, cAMP accumulation; for Emax: read-out: 5-HT1B % Act @ Max Dose
T4 construct: expressed in transfected cells
How it was run: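 Stably transfected human 5-HT1B cells were incubated 60 min at room temperature, after which detection reagent was applied for another 60 min at RT. The read-out was cAMP accumulation, used as a measure of agonist activity.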

5-HT2A receptor [8] = target: T1, 5-HT2A receptor; test: cell-based; assay type: cell-based; details: agonist, beta-arrestin recruitment; for EC50: PathHunter, read-out: 5-HT2A Arrestin EC50; for Emax: read-out: 5-HT2A Arrestin % Act @ Max Dose
How it was run: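 Agonist activity expressed as percent of maximal control ligand signal after vehicle subtraction, from chemiluminescence (RLU). Cells carry ProLink-tagged 5-HT2A plus β-arrestin fused to β-gal deletion mutant; ligand-driven arrestin binding restores β-galactosidase activity (PathHunter). Cells pre-incubated at 37° C.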

5-HT2C receptor = target: T5, 5-HT2C receptor (Homo sapiens, UniProt P28335); test: cell-based; details: agonist, Ca2+ flux, Eurofins DiscoverX protocol; for Emax: max dose, read-out: 5-HT2C % Act @ Max Dose; for EC50: read-out: 5-HT2C EC50
T5 sequence (P28335 33-458): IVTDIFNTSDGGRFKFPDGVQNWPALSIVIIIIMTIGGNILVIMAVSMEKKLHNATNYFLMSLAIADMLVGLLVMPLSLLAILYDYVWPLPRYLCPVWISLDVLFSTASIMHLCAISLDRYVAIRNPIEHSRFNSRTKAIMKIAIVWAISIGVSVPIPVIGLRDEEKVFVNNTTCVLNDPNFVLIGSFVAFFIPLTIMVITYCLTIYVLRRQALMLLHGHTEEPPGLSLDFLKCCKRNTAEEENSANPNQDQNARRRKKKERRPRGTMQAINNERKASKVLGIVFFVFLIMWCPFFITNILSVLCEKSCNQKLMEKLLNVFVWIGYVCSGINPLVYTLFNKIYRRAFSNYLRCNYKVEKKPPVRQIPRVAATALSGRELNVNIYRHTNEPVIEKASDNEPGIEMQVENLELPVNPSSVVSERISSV

C57BL/6 mice = test: Automated mouse head twitch response (HTR) assay (video tracking); assay type: in vivo; details: sc
Procedure: Disclosed compounds were tested for their ability to induce a head twitch response (HTR) in mice using an automated video tracking procedure, with the results summarized in Table 8 and FIG. 4.
Animals. Adult male C57BL/6 mice aged 8-10 weeks (Jackson Labs, Bar Harbor, ME; body weight 18-25 g) were used in this experiment. Animals were group housed under environmentally controlled temperatures and 12-hour light/dark cycles (lights on between 06:00-18:00 h), with ad libitum food and water. Mice were habituated to the facility for at least 5 days prior to testing. All animal procedures were approved by the local IACUC and conducted in accordance with the NIH Guide for the Care and Use of Laboratory Animals.
Procedure. Mice were administered one dose of the drug and immediately placed into a small open field for behavioral observation. High-speed video of animals' behavior was captured continuously for 20 min. Video recordings were imported into an image processing software, which detects multiple points of interest on each animal's body, including the left and right ear. HTR events were defined as periodic deviations of ear locations from temporally averaged ear locations. Predefined thresholds for magnitude and frequency of location deviations were used to filter HTR events from random head movements. The method was validated by comparing detected events with manual (human) observations and found to have an accuracy >95%. The total number of HTR events counted during the 20-min recording and the rate in HTR/min calculated over 2-min bins were determined for each animal at each dose.
Statistical Analysis. The data points shown are the mean±standard error of the mean (SEM).

T2 sequence (P41595 whole entry): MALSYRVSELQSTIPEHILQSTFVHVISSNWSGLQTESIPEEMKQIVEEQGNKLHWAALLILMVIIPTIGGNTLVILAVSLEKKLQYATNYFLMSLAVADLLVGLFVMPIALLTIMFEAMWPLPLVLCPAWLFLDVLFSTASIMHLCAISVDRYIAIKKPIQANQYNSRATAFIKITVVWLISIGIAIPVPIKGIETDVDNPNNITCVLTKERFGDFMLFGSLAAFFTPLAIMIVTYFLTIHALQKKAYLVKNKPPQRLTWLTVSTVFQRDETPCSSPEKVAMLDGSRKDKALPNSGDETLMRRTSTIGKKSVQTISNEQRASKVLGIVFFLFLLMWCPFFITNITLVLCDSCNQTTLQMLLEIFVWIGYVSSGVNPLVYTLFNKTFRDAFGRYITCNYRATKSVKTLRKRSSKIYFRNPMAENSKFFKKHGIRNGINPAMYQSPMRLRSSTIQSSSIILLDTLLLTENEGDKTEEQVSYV
T1 sequence (P28223 whole entry): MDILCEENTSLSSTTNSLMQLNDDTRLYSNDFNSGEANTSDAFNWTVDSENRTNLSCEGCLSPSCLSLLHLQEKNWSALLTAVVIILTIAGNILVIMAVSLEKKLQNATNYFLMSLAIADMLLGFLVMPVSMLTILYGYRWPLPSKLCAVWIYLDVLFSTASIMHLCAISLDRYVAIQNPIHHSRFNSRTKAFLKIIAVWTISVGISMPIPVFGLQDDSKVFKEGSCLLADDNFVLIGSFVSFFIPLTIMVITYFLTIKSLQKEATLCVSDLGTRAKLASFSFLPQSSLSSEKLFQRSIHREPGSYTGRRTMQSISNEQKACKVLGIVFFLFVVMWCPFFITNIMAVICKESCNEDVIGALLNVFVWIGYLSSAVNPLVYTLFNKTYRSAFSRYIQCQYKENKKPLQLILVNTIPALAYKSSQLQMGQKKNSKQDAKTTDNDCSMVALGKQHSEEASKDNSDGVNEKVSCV
T4 sequence (P28222 whole entry): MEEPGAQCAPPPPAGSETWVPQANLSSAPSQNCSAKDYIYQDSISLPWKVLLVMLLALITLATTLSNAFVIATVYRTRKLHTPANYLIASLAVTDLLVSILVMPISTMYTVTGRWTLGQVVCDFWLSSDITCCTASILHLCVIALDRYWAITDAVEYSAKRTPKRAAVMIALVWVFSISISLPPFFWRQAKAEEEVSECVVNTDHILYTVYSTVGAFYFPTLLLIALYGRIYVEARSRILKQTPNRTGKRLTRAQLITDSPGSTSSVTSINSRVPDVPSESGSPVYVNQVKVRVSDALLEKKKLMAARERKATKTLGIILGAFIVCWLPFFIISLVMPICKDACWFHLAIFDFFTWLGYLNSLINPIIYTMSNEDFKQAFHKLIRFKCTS

SMILES | Emax (5-HT2A receptor [1]; Ca2+ flux, HEK293, max dose) | EC50 (5-HT2A receptor [1]; agonist, Ca2+ flux) | Ki (5-HT2A receptor [2]) | Ki (5-HT2B receptor [3]) | microsomal CLint (in vitro [4]) | half-life (in vitro [4]) | microsomal CLint (in vitro [5]) | half-life (in vitro [5]) | microsomal CLint (in vitro [6]) | half-life (in vitro [6]) | Emax (5-HT1A receptor) | EC50 (5-HT1A receptor) | Emax (5-HT2B receptor [7]; HEK293, max dose) | EC50 (5-HT2B receptor [7]; agonist) | Emax (5-HT1B receptor; max dose) | EC50 (5-HT2A receptor [8]) | Emax (5-HT2A receptor [8]; max dose) | Emax (5-HT2C receptor) | EC50 (5-HT2C receptor) | other results
CCN(CC)C(=O)[C@@H]1C=C2c3cccc4[nH]cc(c34)C[C@H]2N(CC2CCCCC2)C1 [Compound 89, (6aR,9R)-7-(cyclohexylmethyl)-N,N-diethyl-4,6,6a,7,8,9-hexahydroindolo[4,3-fg]quinoline-9-carboxamide] | 51.8% | 839 nM | 1.67 nM | 9.67 nM | 244 µL/min/mg | 5.7 min | 104 µL/min/mg | 13.3 min | 572 µL/min/mg | 2.4 min | 84.4% | > 100000 nM | 11.5% | > 10000 nM |  |  |  |  |  | 
CCC[C@@H](C)NC(=O)[C@@H]1C=C2c3cccc4[nH]c(Br)c(c34)C[C@H]2N(C)C1 [Compound 45, (6aR,9R)-5-bromo-N—((R)-pentan-2-yl)-7-methyl-4,6,6a,7,8,9-hexahydroindolo[4,3-fg]quinoline-9-carboxamide] | 22.3% |  |  | 3.65 nM |  |  |  |  |  |  | 12.5% |  | -0.31% |  | 87.1% | 4.28 nM | 45.3% | 22.1% | > 10000 nM | 
CCN(CC)C(=O)[C@@H]1C=C2c3cccc4[nH]cc(c34)C[C@H]2NC1 [Compound 83] |  | 1.7 nM | 5.65 nM |  |  |  |  |  |  |  |  |  |  | 22.5 nM |  | 2.71 nM |  |  |  | EC50 (5-HT1B receptor): 27.4 nM; 5-HT1B % Act @ Max Dose (5-HT1B receptor; max dose): 88.07%; 5-HT2A Arrestin % Act @ Max Dose (5-HT2A receptor [8]; max dose): 88.78%; 5-HT2A % Act @ Max Dose (5-HT2A receptor [1]; agonist, Ca2+ flux, HEK293, max dose): 107.11%; Ki (5-HT2B receptor [3]; [3H]LSD 2 nM, HEK293 stable cell line, 1 h, 25 °C): 115 nM; # HTR/20 min at Most Efficacious Dose (C57BL/6 mice; 20 min recording, mean, at each compound's most efficacious dose (35*, 43*, 44*: suppressed below vehicle 14.5, dose is that of least suppression)): 29.625 HTR/20 min; Most Efficacious Dose for Peak HTR/min (C57BL/6 mice; dose giving highest peak HTR/min (35*, 43*, 44*: dose that resulted in the least suppression)): (10) mg/kg, sc; Most Efficacious Dose for # HTR/20 min (C57BL/6 mice; dose giving most HTR/20 min (35*, 43*, 44*: dose that resulted in the least suppression)): (3.2) mg/kg, sc; Peak HTR/min at Most Efficacious Dose (C57BL/6 mice; rate over 2-min bins, mean, at each compound's most efficacious dose (35*, 43*, 44*: suppressed below vehicle 1.62, dose is that of least suppression)): 3.625 HTR/min; Intrinsic clearance (Clint) (in vitro [4]): 15.3 µL/min/mg; half-life (t1/2) (in vitro [4]): 90.5 min; Intrinsic clearance (Clint) (in vitro [5]): <9.6 µL/min/mg; half-life (t1/2) (in vitro [5]): >145 min; Intrinsic clearance (Clint) (in vitro [6]): 12.6 µL/min/mg; half-life (t1/2) (in vitro [6]): 110.1 min; 5-HT2B % Act @ Max Dose (5-HT2B receptor [7]; agonist, HEK293, max dose): 69.27%
CCN(CC)C(=O)[C@@H]1C=C2c3cccc4[nH]cc(c34)C[C@H]2N(CC2CCCC2)C1 [Compound 90, (6aR,9R)-7-(cyclopentylmethyl)-N,N-diethyl-4,6,6a,7,8,9-hexahydroindolo[4,3-fg]quinoline-9-carboxamide] | 55.8% | 642 nM | 2.35 nM | 2.08 nM | 370 µL/min/mg | 3.7 min | 140 µL/min/mg | 9.9 min | 649 µL/min/mg | 2.1 min | 76.8% | 42600 nM | 12% | > 10000 nM |  |  |  |  |  | 
CCN(CC)C(=O)[C@@H]1C=C2c3cccc4[nH]c(Br)c(c34)C[C@H]2N(CCC(F)(F)F)C1 [Compound 42, (6aR,9R)-5-bromo-N,N-diethyl-7-(3,3,3-trifluoropropyl)-4,6,6a,7,8,9-hexahydroindolo[4,3-fg]quinoline-9-carboxamide] | 8.29% |  |  | 238 nM |  |  |  |  |  |  | 9.13% |  | 2.58% |  | 33.1% | 16 nM | 49.4% | 17.9% | > 10000 nM | agonist activity at any of the serotonin receptors tested (5-HT2A receptor [1]; functional assays at 5-HT2A, 2B, 2C, 1A, 1B): no agonist activity at any of the receptors tested; potency in receptor binding (5-HT2A receptor [2]; radioligand binding, 5-HT2A): potent binding to 5-HT2A

— patent publication US20260317319A1, “NOVEL ERGOLINES AND METHODS OF TREATING MOOD DISORDERS” (Gilgamesh Pharma Inc., priority 2023, published 2026)
